Experimental data from patent publication US20150105252A1, “SUBSTITUTED PYRAZOLES AS HERBICIDES” (E I DU PONT DE NEMOURS AND COMPANY, priority 2013, published 2015).

Legend:
galium [1] = experiment: Test C preemergence; assay type: in vivo, Galium aparine; settings: for Galium plant response rating / Plant response rating, Galium: preemergence; for Plant response rating, Galium: scale 0 to 100, 0 = no effect, 100 = complete control
Procedure, shortened: (§1)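 Visual rating, 0–100 scale (0 no effect, 100 complete control), vs untreated controls after 13–15 d greenhouse. Pre: seeds in loam/sand, treated at sowing. Post: plants in peat-based mix, 1- to 4-leaf (2–18 cm). Solvent + surfactant formulation, non-phytotoxic.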

oilseed rape = experiment: Test C postemergence; assay type: in vivo, Brassica napus; settings: for Oilseed Rape plant response rating / Plant response rating, Oilseed Rape: postemergence; for Oilseed Rape plant response rating: 62 g ai/ha, scale 0 to 100
Procedure, shortened: as §1

corn [2] = experiment: Test C preemergence; assay type: in vivo, Zea mays; settings: for Corn plant response rating / Plant response rating, Corn: preemergence; for Plant response rating, Corn: scale 0 to 100, 0 = no effect, 100 = complete control
Procedure, shortened: as §1

ducksalad = experiment: Test B flood; assay type: in vivo, Heteranthera limosa; settings: 250 g ai/ha, visual rating on 0 to 100 scale (0 no effect, 100 complete control), 13 to 15 days
Procedure, shortened: (§2)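 Greenhouse assay lasting 13 to 15 days. Treatment was into water flooding pots 3 cm deep, at the 2-leaf stage, with that level sustained afterwards. Scores compare treated with control plants visually, 100 denoting complete control and 0 no effect; a dash marks no test result.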

corn [3] = experiment: Test A preemergence; assay type: in vivo, Zea mays; settings: preemergence; for Corn plant response rating (0 to 100 scale): visual injury approx. 10 days after treatment
Procedure, shortened: (§3)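 Growth medium: loam soil blended with sand. Preemergence treatment used a directed soil spray right after planting; postemergence treatment targeted seedlings at one to two leaves (2–10 cm height). Response was judged by eye relative to untreated plants about 10 days later on a 0–100 control scale.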

wheat = experiment: Test A postemergence; assay type: in vivo, Triticum aestivum
Procedure, shortened: as §3

pigweed = experiment: Test A preemergence; assay type: in vivo, Amaranthus retroflexus; settings: preemergence; for Pigweed plant response rating (0 to 100 scale): visual injury approx. 10 days after treatment
Procedure, shortened: as §3

velvetleaf = experiment: Test A preemergence; assay type: in vivo, Abutilon theophrasti; settings: preemergence; for Velvetleaf plant response rating (0 to 100 scale): visual injury approx. 10 days after treatment
Procedure, shortened: as §3

morningglory = experiment: Test C preemergence; assay type: in vivo, Ipomoea coccinea; settings: for Morningglory plant response rating / Plant response rating, Morningglory: preemergence; for Plant response rating, Morningglory: scale 0 to 100, 0 = no effect, 100 = complete control
Procedure, shortened: as §1

sedge, umbrella = experiment: Test B flood; assay type: in vivo, Cyperus difformis; settings: 250 g ai/ha, visual rating on 0 to 100 scale (0 no effect, 100 complete control), 13 to 15 days
Procedure, shortened: as §2

barnyardgrass [4] = experiment: Test A preemergence; assay type: in vivo, Echinochloa crus-galli; settings: preemergence
Procedure, shortened: as §3

foxtail, giant = experiment: Test A preemergence; assay type: in vivo, Setaria faberii; settings: preemergence; for Foxtail, Giant plant response rating (0 to 100 scale): visual injury approx. 10 days after treatment
Procedure, shortened: as §3

galium [5] = experiment: Test C postemergence; assay type: in vivo, Galium aparine; settings: for Plant response rating (scale of 0 to 100 where 0 is no effect and 100 is complete control), Galium: Postemergence, 31 g ai/ha, visually evaluated after 13 to 15 days; for Galium plant response rating / Plant response rating, Galium: postemergence; for Galium plant response rating: 62 g ai/ha, scale 0 to 100
Procedure, shortened: as §1

barnyardgrass [6] = experiment: Test C preemergence; assay type: in vivo, Echinochloa crus-galli; settings: for Barnyardgrass plant response rating / Plant response rating, Barnyardgrass: preemergence; for Plant response rating, Barnyardgrass: scale 0 to 100, 0 = no effect, 100 = complete control
Procedure, shortened: as §1

blackgrass = experiment: Test C postemergence; assay type: in vivo, Alopecurus myosuroides; settings: for Plant response rating (scale of 0 to 100 where 0 is no effect and 100 is complete control), Blackgrass: Postemergence, 31 g ai/ha, visually evaluated after 13 to 15 days; for Blackgrass plant response rating / Plant response rating, Blackgrass: postemergence; for Blackgrass plant response rating: 62 g ai/ha, scale 0 to 100
Procedure, shortened: as §1

[7] = 31 g ai/ha, visual rating, scale 0 to 100 (0 no effect, 100 complete control), 13 to 15 days
[8] = 62 g ai/ha, scale 0 to 100 (0 no effect, 100 complete control), 13 to 15 days
[9] = 125 g ai/ha, scale 0 to 100, 0 is no effect, 100 is complete control
[10] = 250 g ai/ha, scale 0 to 100 (0 no effect, 100 complete control)
[11] = 125 g ai/ha, scale 0 to 100, 0 no effect, 100 complete control
[12] = 125 g ai/ha, visual injury, 0 to 100 scale, approx. 10 days
[13] = 500 g ai/ha, visual injury after approx. 10 days, 0 to 100 scale (0 no effect, 100 complete control)
[14] = postemergence, 125 g ai/ha, about 10 days, visual rating on 0 to 100 scale (0 no effect, 100 complete control)
[15] = 250 g ai/ha, scale 0 to 100, 0 is no effect, 100 is complete control
[16] = Postemergence, 500 g ai/ha, 0 to 100 scale (0 no effect, 100 complete control)

CCCNC(=O)c1cc(CC)n(Cc2nc(C(F)(F)F)nn2C)n1 [Compound 109]
Plant response rating (scale of 0 to 100), Galium (galium [1]; Preemergence, 250 g ai/ha): 100
Galium plant response rating (galium [1]; [7]): 10
Galium plant response rating (galium [1]; [8]): 100
Galium plant response rating (galium [1]; [9]): 100
Plant response rating (scale of 0 to 100 where 0 is no effect and 100 is complete control), Oilseed Rape (oilseed rape; Postemergence, 31 g ai/ha, visually evaluated after 13 to 15 days): 40
Oilseed Rape plant response rating (oilseed rape): 45
Plant response rating, Oilseed Rape (oilseed rape; [10]): 50
Plant response rating, Oilseed Rape (oilseed rape; [11]): 45
Plant response rating (scale of 0 to 100), Corn (corn [2]; Preemergence, 250 g ai/ha): 100
Corn plant response rating (corn [2]; [7]): 25
Corn plant response rating (corn [2]; [8]): 85
Corn plant response rating (corn [2]; [9]): 95
Plant response rating, Ducksalad (ducksalad): 0
Corn plant response rating (corn [3]; [12]): 60
Corn plant response rating (corn [3]; [13]): 80
Wheat plant response rating (wheat; Postemergence, 500 g ai/ha, visual rating after approx. 10 days, 0 to 100 scale (0 no effect, 100 complete control)): 80
Wheat plant response rating (wheat; [14]): 50
Pigweed plant response rating (pigweed; [12]): 100
Pigweed plant response rating (pigweed; [13]): 100
Velvetleaf plant response rating (velvetleaf; [12]): 70
Velvetleaf plant response rating (velvetleaf; [13]): 100
Plant response rating (scale of 0 to 100), Morningglory (morningglory; Preemergence, 250 g ai/ha): 100
Morningglory plant response rating (morningglory; [7]): 95
Morningglory plant response rating (morningglory; [8]): 100
Morningglory plant response rating (morningglory; [9]): 100
Plant response rating, Sedge, Umbrella (sedge, umbrella): 0
Barnyardgrass plant response rating (barnyardgrass [4]; [12]): 100
Barnyardgrass plant response rating (barnyardgrass [4]; [13]): 100
Foxtail, Giant plant response rating (foxtail, giant; [12]): 100
Foxtail, Giant plant response rating (foxtail, giant; [13]): 100
Plant response rating (scale of 0 to 100 where 0 is no effect and 100 is complete control), Galium (galium [5]): 50
Galium plant response rating (galium [5]): 50
Plant response rating, Galium (galium [5]; [10]): 80
Plant response rating, Galium (galium [5]; [11]): 65
Plant response rating (scale of 0 to 100), Barnyardgrass (barnyardgrass [6]; Preemergence, 250 g ai/ha): 100
Barnyardgrass plant response rating (barnyardgrass [6]; 31 g ai/ha, scale 0 to 100 (0 no effect, 100 complete control), 13 to 15 days): 100
Barnyardgrass plant response rating (barnyardgrass [6]; [8]): 100
Barnyardgrass plant response rating (barnyardgrass [6]; [9]): 100
Plant response rating (scale of 0 to 100 where 0 is no effect and 100 is complete control), Blackgrass (blackgrass): 5
Blackgrass plant response rating (blackgrass): 5
Plant response rating, Blackgrass (blackgrass; [10]): 15
Plant response rating, Blackgrass (blackgrass; [11]): 10

CCNC(=O)c1cc(CC)n(Cc2cc(C(F)(F)F)nn2C)n1 [Compound 154]
Galium plant response rating (galium [1]; [7]): 90
Galium plant response rating (galium [1]; [8]): 100
Plant response rating, Galium (galium [1]; 125 g ai/ha, 13 to 15 days): 100
Galium plant response rating (galium [1]; [15]): 100
Oilseed Rape plant response rating (oilseed rape): 45
Plant response rating, Oilseed Rape (oilseed rape; [10]): 70
Plant response rating, Oilseed Rape (oilseed rape; [11]): 60
Corn plant response rating (corn [2]; [7]): 0
Corn plant response rating (corn [2]; [8]): 5
Plant response rating, Corn (corn [2]; 125 g ai/ha, 13 to 15 days): 40
Corn plant response rating (corn [2]; [15]): 95
Plant response rating, Ducksalad (ducksalad): 90
Corn plant response rating (0 to 100 scale) (corn [3]; 125 g ai/ha): 0
Corn plant response rating (corn [3]; [13]): 30
Wheat plant response rating (wheat; [16]): 100
Wheat plant response rating (wheat; [14]): 20
Pigweed plant response rating (0 to 100 scale) (pigweed; 125 g ai/ha): 100
Pigweed plant response rating (pigweed; [13]): 100
Velvetleaf plant response rating (0 to 100 scale) (velvetleaf; 125 g ai/ha): 90
Velvetleaf plant response rating (velvetleaf; [13]): 100
Morningglory plant response rating (morningglory; [7]): 35
Morningglory plant response rating (morningglory; [8]): 90
Plant response rating, Morningglory (morningglory; 125 g ai/ha, 13 to 15 days): 100
Morningglory plant response rating (morningglory; [15]): 100
Plant response rating, Sedge, Umbrella (sedge, umbrella): 95
Barnyardgrass plant response rating (barnyardgrass [4]; [12]): 90
Barnyardgrass plant response rating (barnyardgrass [4]; [13]): 100
Foxtail, Giant plant response rating (0 to 100 scale) (foxtail, giant; 125 g ai/ha): 100
Foxtail, Giant plant response rating (foxtail, giant; [13]): 100
Plant response rating (scale of 0 to 100 where 0 is no effect and 100 is complete control), Galium (galium [5]): 50
Galium plant response rating (galium [5]): 50
Plant response rating, Galium (galium [5]; [10]): 85
Plant response rating, Galium (galium [5]; [11]): 65
Barnyardgrass plant response rating (barnyardgrass [6]; [7]): 55
Barnyardgrass plant response rating (barnyardgrass [6]; [8]): 95
Plant response rating, Barnyardgrass (barnyardgrass [6]; 125 g ai/ha, 13 to 15 days): 100
Barnyardgrass plant response rating (barnyardgrass [6]; [15]): 100
Plant response rating (scale of 0 to 100 where 0 is no effect and 100 is complete control), Blackgrass (blackgrass): 0
Blackgrass plant response rating (blackgrass): 0
Plant response rating, Blackgrass (blackgrass; [10]): 40
Plant response rating, Blackgrass (blackgrass; [11]): 10

CCCNC(=O)c1cc(OCC)n(Cc2ccnc(C(F)(F)F)c2)n1 [Compound 187]
Galium plant response rating (galium [1]; [7]): 90
Galium plant response rating (galium [1]; [8]): 95
Plant response rating, Galium (galium [1]; 125 g ai/ha, 13 to 15 days): 95
Galium plant response rating (galium [1]; [15]): 98
Oilseed Rape plant response rating (oilseed rape): 50
Plant response rating, Oilseed Rape (oilseed rape; [10]): 80
Plant response rating, Oilseed Rape (oilseed rape; [11]): 75
Corn plant response rating (corn [2]; [7]): 20
Corn plant response rating (corn [2]; [8]): 85
Plant response rating, Corn (corn [2]; 125 g ai/ha, 13 to 15 days): 95
Corn plant response rating (corn [2]; [15]): 98
Plant response rating, Ducksalad (ducksalad): 90
Corn plant response rating (0 to 100 scale) (corn [3]; 125 g ai/ha): 40
Corn plant response rating (corn [3]; [13]): 90
Wheat plant response rating (wheat; Postemergence, 125 g ai/ha, 0 to 100 scale, 0 no effect, 100 complete control): 50
Wheat plant response rating (wheat; [16]): 80
Pigweed plant response rating (0 to 100 scale) (pigweed; 125 g ai/ha): 0
Pigweed plant response rating (pigweed; [13]): 0
Velvetleaf plant response rating (0 to 100 scale) (velvetleaf; 125 g ai/ha): 100
Velvetleaf plant response rating (velvetleaf; [13]): 100
Morningglory plant response rating (morningglory; [7]): 85
Morningglory plant response rating (morningglory; [8]): 100
Plant response rating, Morningglory (morningglory; 125 g ai/ha, 13 to 15 days): 100
Morningglory plant response rating (morningglory; [15]): 100
Plant response rating, Sedge, Umbrella (sedge, umbrella): 90
Barnyardgrass plant response rating (0 to 100 scale, 0 is no effect, 100 is complete control) (barnyardgrass [4]; 125 g ai/ha, visual injury approx. 10 days after treatment): 90
Barnyardgrass plant response rating (barnyardgrass [4]; [13]): 100
Foxtail, Giant plant response rating (0 to 100 scale) (foxtail, giant; 125 g ai/ha): 100
Foxtail, Giant plant response rating (foxtail, giant; [13]): 100
Plant response rating (scale of 0 to 100 where 0 is no effect and 100 is complete control), Galium (galium [5]): 60
Galium plant response rating (galium [5]): 80
Plant response rating, Galium (galium [5]; [10]): 90
Plant response rating, Galium (galium [5]; [11]): 85
Barnyardgrass plant response rating (barnyardgrass [6]; [7]): 95
Barnyardgrass plant response rating (barnyardgrass [6]; [8]): 100
Plant response rating, Barnyardgrass (barnyardgrass [6]; 125 g ai/ha, 13 to 15 days): 100
Barnyardgrass plant response rating (barnyardgrass [6]; [15]): 100
Plant response rating (scale of 0 to 100 where 0 is no effect and 100 is complete control), Blackgrass (blackgrass): 10
Blackgrass plant response rating (blackgrass): 5
Plant response rating, Blackgrass (blackgrass; [10]): 80
Plant response rating, Blackgrass (blackgrass; [11]): 30
